In US8309586B2, “Glucokinase activators and pharmaceutical compositions containing the same as an active ingredient” (LG Life Sciences Ltd., priority 2007, dated 2012):

tested on: Glucokinase known as hexokinase IV (human GK isoform 1, pancreas form and human GK isoform 2, liver form); assay: Glucokinase enzymatic activity assay (G6PDH-coupled, NADH absorbance at 340 nm); format: biochemical; settings: 5 mM glucose, 1 mM ATP, 37 nM GK, 10 min at room temperature
Experimental: Glucokinase known as hexokinase IV (human GK isoform 1, pancreas form and human GK isoform 2, liver form) was cloned into an expression vector pET15 fx (Novagen Co.), transformed to E. coli BL21 (DE3) (Invitrogen Co.) strain, expressed, and purified using a nickel column. Then, the glucokinase obtained from dialysis was used in the following assay.
Glucokinase assay was performed by measuring absorbance according to the conventional manner. Briefly speaking, glucokinase converts the substrate glucose to glucose-6-phosphate under certain conditions, and glucose-6-phosphate dehydrogenase irreversibly converts glucose-6-phosphate to gluconate-6-phosphate. During this procedure, NADH is formed, and its absorbance is measured to calculate the enzymatic activity.
In the measurement of the enzymatic activity, each compound was diluted by two-fold from the maximum to the minimum concentrations, and 2 μl of each solution was added to 96 well UV plate (BD bioscience). 60 μl of the first mixture (final concentrations 25 mM Hepes, 25 mM KCl, 2 mM MgCl2, 1 mM DTT) was added, and thoroughly mixed. 38 μl of the enzyme mixture (final concentrations 1 mM ATP, 1 mM NAD, 5 mM glucose, 0.85U G6PDH, 37 nM GK) was added (final volume 100 μl), and the mixture was reacted for 10 min at room temperature. The absorbance of NADH was measured at 340 nm using a UV spectrometer (Molecular Device).
The enzyme activating abilities of the compounds according to the present invention are represented as AC1.5 (the compound concentration at which the enzymatic activity is increased by 1.5 times, nM), which is in the range of 0.001 uM to 30 uM or less, preferably 0.001 uM to 10 uM, more preferably 0.001 uM to 1 uM.

With CN(C)C(=O)C[C@@H]1CSC(c2cc3cc(Cl)cc(NC4CCCC4)c3[nH]2)=N1 [Example 77, 2-[(R)-2-(5-chloro-7-cyclopentylamino-1H-indol-2-yl)-4,5-dihydro-thiazol-4-yl]-N,N-dimethyl-acetamide] as the compound, how does the “AC1.5 (the compound concentration at which the enzymatic activity is increased by 1.5 times)” value read?
Its value is 27 nM.

Which “AC1.5 (the compound concentration at which the enzymatic activity is increased by 1.5 times)” value does the source give for CN1CCN(C(=O)C[C@@H]2CSC(c3cc4cc(Cl)cc(NC5CCCC5)c4[nH]3)=N2)CC1 [Example 78, 2-[(R)-2-(5-chloro-7-cyclopentylamino-1H-indol-2-yl)-4,5-dihydro-thiazol-4-yl]-1-(4-methyl-piperazin-1-yl)-ethanone] here?
The value was 25 nM.

For CN(C)C1CCN(C(=O)C[C@@H]2CSC(c3cc4cc(Cl)cc(NC5CCCC5)c4[nH]3)=N2)C1 (stereo partly drawn) [Example 79, 2-[(R)-2-(5-chloro-7-cyclopentylamino-1H-indol-2-yl)-4,5-dihydro-thiazol-4-yl]-1-(3-dimethylamino-pyrrolidin-1-yl)-ethanone], which “AC1.5 (the compound concentration at which the enzymatic activity is increased by 1.5 times)” value is on record?
Its value is 19 nM.

For O=C(C[C@@H]1CSC(c2cc3cc(Cl)cc(NC4CCCC4)c3[nH]2)=N1)N1CCC(O)C1 (stereo partly drawn) [Example 80, 2-[(R)-2-(5-chloro-7-cyclopentylamino-1H-indol-2-yl)-4,5-dihydro-thiazol-4-yl]-1-(3-hydroxy-pyrrolidin-1-yl)-ethanone], which “AC1.5 (the compound concentration at which the enzymatic activity is increased by 1.5 times)” value is on record?
The value was 21 nM.

For O=C(C[C@@H]1CSC(c2cc3cc(Cl)cc(NC4CCCC4)c3[nH]2)=N1)N1CCCCC1 [Example 81, 2-[(R)-2-(5-chloro-7-cyclopentylamino-1H-indol-2-yl)-4,5-dihydro-thiazol-4-yl]-1-piperidin-1-yl-ethanone], which “AC1.5 (the compound concentration at which the enzymatic activity is increased by 1.5 times)” value is on record?
The value was 6 nM.

With CNC(=O)C[C@@H]1CSC(c2cc3cc(Cl)cc(NC4CCOCC4)c3[nH]2)=N1 [Example 82, 2-{(R)-2-[5-chloro-7-(tetrahydro-pyran-4-ylamino)-1H-indol-2-yl]-4,5-dihydro-thiazol-4-yl}-N-methyl-acetamide] as the compound, how does the “AC1.5 (the compound concentration at which the enzymatic activity is increased by 1.5 times)” value read?
The value was 22 nM.

With O=C(C[C@@H]1CSC(c2cc3cc(Cl)cc(NC4CCOCC4)c3[nH]2)=N1)N1CCOCC1 [Example 83, 2-{(R)-2-[5-chloro-7-(tetrahydro-pyran-4-ylamino)-1H-indol-2-yl]-4,5-dihydro-thiazol-4-yl}-1-morpholin-4-yl-ethanone] as the compound, how does the “AC1.5 (the compound concentration at which the enzymatic activity is increased by 1.5 times)” value read?
The value was 45 nM.

How did the “AC1.5 (the compound concentration at which the enzymatic activity is increased by 1.5 times)” value turn out when CN1CCN(C(=O)C[C@@H]2CSC(c3cc4cc(F)cc(NC5CCCC5)c4[nH]3)=N2)CC1 [Example 84, 2-[(R)-2-(7-cyclopentylamino-5-fluoro-1H-indol-2-yl)-4,5-dihydro-thiazol-4-yl]-1-(4-methyl-piperazin-1-yl)-ethanone] was run?
Its value is 27 nM.

With O=C(C[C@@H]1CSC(c2cc3cc(F)cc(NC4CCCC4)c3[nH]2)=N1)NCCN1CCOCC1 [Example 85, 2-[(R)-2-(7-cyclopentylamino-5-fluoro-1H-indol-2-yl)-4,5-dihydro-thiazol-4-yl]-N-(2-morpholin-4-yl-ethyl)-acetamide] as the compound, how does the “AC1.5 (the compound concentration at which the enzymatic activity is increased by 1.5 times)” value read?
Its value is 18 nM.

Which “AC1.5 (the compound concentration at which the enzymatic activity is increased by 1.5 times)” value does the source give for CC(=O)N1CCN(C(=O)C[C@@H]2CSC(c3cc4cc(F)cc(NC5CCCC5)c4[nH]3)=N2)CC1 [Example 86, 1-(4-acetyl-piperazin-1-yl)-2-[(R)-2-(7-cyclopentylamino-5-fluoro-1H-indol-2-yl)-4,5-dihydro-thiazol-4-yl]-ethanone] here?
Its value is 23 nM.

With CNC(=O)C[C@@H]1CSC(c2cc3cc(OC)cc(NC4CCCC4)c3[nH]2)=N1 [Example 87, 2-[(R)-2-(7-cyclopentylamino-5-methoxy-1H-indol-2-yl)-4,5-dihydro-thiazol-4-yl]-N-methyl-acetamide] as the compound, how does the “AC1.5 (the compound concentration at which the enzymatic activity is increased by 1.5 times)” value read?
The value was 10 nM.

COc1cc(NC2CCCC2)c2[nH]c(C3=N[C@H](CC(=O)N4CCOCC4)CS3)cc2c1 [Example 88, 2-[(R)-2-(7-cyclopentylamino-5-methoxy-1H-indol-2-yl)-4,5-dihydro-thiazol-4-yl]-1-morpholin-4-yl-ethanone] was tested. Which “AC1.5 (the compound concentration at which the enzymatic activity is increased by 1.5 times)” value did it give?
The value was 19 nM.
